Measured values: the supplement of paper PMC11061612

Experiments:
Test in all cases: Bliss excess, mean over the matrix (fraction); higher = more synergy
[1] = test system: CAL-62 (Thyroid Gland Carcinoma)
In short: (§1)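 Bliss excess equals the observed combination effect minus the expected value EA + EB − EA·EB, where EA and EB are the effects of each agent alone. Combination Emax is the second-highest inhibition within the matrix. Inhibition was scaled from CellTiter-Glo 2.0 luminescence, with 0 set by vehicle wells and 1 by blank wells, after 72 hours of two-drug dosing of cells plated in 1536-well plates.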

[2] = test system: COLO-680N (Esophageal Squamous Cell Carcinoma)
In short: as §1

[3] = test system: HSC-39 (Gastric Carcinoma)
In short: as §1

[4] = test system: L-1236 (Hodgkin's Lymphoma)
In short: as §1

[5] = test system: LK-2 (Squamous Cell Lung Carcinoma)
In short: as §1

[6] = test system: MFE-280 (Endometrial Carcinoma)
In short: as §1

[7] = test system: MKN45 (Gastric Carcinoma)
In short: as §1

NB12 (Neuroblastoma) = test system: NB12 (Neuroblastoma)
In short: as §1

[8] = test system: NCI-H2342 (Lung Adenocarcinoma)
In short: as §1

[9] = test system: OPM-2 (Plasma Cell Myeloma)
In short: as §1

[10] = test system: OVMIU (Ovarian Carcinoma)
In short: as §1

[11] = test system: PANC-03-27 (Pancreatic Carcinoma)
In short: as §1

[12] = test system: PC-3_[JPC-3] (Lung Adenocarcinoma)
In short: as §1

[13] = test system: RCM-1 (Colorectal Carcinoma)
In short: as §1

[14] = test system: RKN (Other Solid Carcinomas)
In short: as §1

[15] = test system: SHP-77 (Small Cell Lung Carcinoma)
In short: as §1

SK-MEL-2 (Melanoma) = test system: SK-MEL-2 (Melanoma)
In short: as §1

[16] = test system: SK-PN-DW (Other Solid Carcinomas)
In short: as §1

[17] = test system: TE-8 (Esophageal Squamous Cell Carcinoma)
In short: as §1

[18] = test system: VAL (B-Cell Non-Hodgkin's Lymphoma)
In short: as §1

SMILES	Bliss excess [1]	Bliss excess [2]	Bliss excess [3]	Bliss excess [4]	Bliss excess [5]	Bliss excess [6]	Bliss excess [7]	Bliss excess (NB12 (Neuroblastoma))	Bliss excess [8]	Bliss excess [9]	Bliss excess [10]	Bliss excess [11]	Bliss excess [12]	Bliss excess [13]	Bliss excess [14]	Bliss excess [15]	Bliss excess (SK-MEL-2 (Melanoma))	Bliss excess [16]	Bliss excess [17]	Bliss excess [18]
C[C@@H](Nc1cc(F)cc(F)c1)c1cc(C(=O)N(C)C)cc2c(=O)cc(N3CCOCC3)oc12 [AZD8186] + C1CN(CCC1(C(=O)N[C@@H](CCO)C2=CC=C(C=C2)Cl)N)C3=NC=NC4=C3C=CN4 [AZD5363] (first compound max 10 µM, 7x7, partner max 10 µM)	-0.0203	-0.0335	-0.0271	-0.0371	0.0061	-0.0505	-0.038	-0.0305	0.0003	-0.0756	-0.0719	-0.0239	-0.0245	0.0062	-0.0448	-0.0913	-0.0285	-0.0137	-0.0543	-0.0608
C[C@@H](Nc1cc(F)cc(F)c1)c1cc(C(=O)N(C)C)cc2c(=O)cc(N3CCOCC3)oc12 [AZD8186] + CC(=O)c1c(C)c2cnc(Nc3ccc(N4CCNCC4)cn3)nc2n(C2CCCC2)c1=O [Palbociclib] (first compound max 10 µM, 7x7, partner max 10 µM)	0.0294	-0.0328	0.0271	-0.138	0.0023	-0.0424	-0.0476	0.0009	0.0877	0.0338	-0.0439	0.0614	-0.023	-0.0077	-0.0328	-0.0692	-0.0346	0.073	-0.0495	-0.0615
C[C@@H](Oc1cc(-c2cnn(C3CCNCC3)c2)cnc1N)c1c(Cl)ccc(F)c1Cl [Crizotinib] + CC1=C(C(=CC=C1)Cl)NC(=O)C2=CN=C(S2)NC3=CC(=NC(=N3)C)N4CCN(CC4)CCO [Dasatinib] (first compound max 10 µM, 7x7, partner max 2 µM)	0.0464	-0.0005	0.0093	-0.0626	-0.0103	0.0091	-0.048	-0.0563	-0.0108	0	0.0041	0.0688	-0.0005	-0.0081	0.0179	-0.0482	-0.0362	-0.0426	0.0208	-0.0228
C[C@@H](Oc1cc(-c2cnn(C3CCNCC3)c2)cnc1N)c1c(Cl)ccc(F)c1Cl [Crizotinib] + Cn1cnc2c(F)c(Nc3ccc(Br)cc3Cl)c(C(=O)NOCCO)cc21 [Selumetinib] (first compound max 10 µM, 7x7, partner max 10 µM)	-0.0219	-0.039	-0.0264	-0.0849	0.011	-0.0544	-0.0192	-0.0665	-0.0267	-0.0463	-0.0302	-0.0689	-0.0549	-0.0089	0.0181	0.0404	0.0382	-0.0705	-0.0898	-0.0516
O=C(c1cc(Cc2n[nH]c(=O)c3ccccc23)ccc1F)N1CCN(C(=O)C2CC2)CC1 [Olaparib] + CC1(C)CCC(CN2CCN(c3ccc(C(=O)NS(=O)(=O)c4ccc(NCC5CCOCC5)c([N+](=O)[O-])c4)c(Oc4cnc5[nH]ccc5c4)c3)CC2)=C(c2ccc(Cl)cc2)C1 [Venetoclax] (first compound max 10 µM, 7x7, partner max 1 µM)	-0.0329	-0.0584	0.0033	-0.0009	0.0039	-0.053	-0.0424	0.0811	-0.0201	0.0309	-0.067	-0.0675	-0.0354	-0.0304	-0.0305	-0.0028	0.0044	0.0049	-0.0825	0.0181
O=C(c1cc(Cc2n[nH]c(=O)c3ccccc23)ccc1F)N1CCN(C(=O)C2CC2)CC1 [Olaparib] + CN(CC[C@H](CSC1=CC=CC=C1)NC2=C(C=C(C=C2)S(=O)(=O)NC(=O)C3=CC=C(C=C3)N4CCC(CC4)[C@H](C5=CC=CC=C5C6=CC=C(C=C6)Cl)O)S(=O)(=O)C(F)(F)F)CCO [AZD4320] (first compound max 10 µM, 7x7, partner max 1 µM)	-0.042	-0.0598	-0.0172	-0.0506	0.0748	0.0045	-0.0428	0.0362	-0.018	0.0334	-0.0979	-0.0341	-0.0525	-0.0431	-0.0407	0.0133	-0.0397	0.0012	-0.0869	0.0212
O=C(c1cc(Cc2n[nH]c(=O)c3ccccc23)ccc1F)N1CCN(C(=O)C2CC2)CC1 [Olaparib] + COc1nnc2ccc(N3CCC(c4ccc(OCCN5CCN(C)C(=O)[C@H]5C)cc4)CC3)nn12 [AZD5153] (first compound max 10 µM, 7x7, partner max 1 µM)	-0.0556	-0.0446	-0.072	-0.0184	-0.0571	-0.0147	-0.0794	-0.0203	-0.0253	0.0122	-0.0521	-0.0776	-0.0518	-0.0473	0.0101	0.0113	-0.0421	-0.0518	-0.0706	-0.0784
O=C(c1cc(Cc2n[nH]c(=O)c3ccccc23)ccc1F)N1CCN(C(=O)C2CC2)CC1 [Olaparib] + Cc1c2c(nn1C)CSCc1cc(n(C)n1)CSc1cc(c3ccccc3c1)OCCCc1c(C(=O)O)n(C)c3c-2c(Cl)ccc13 [AZD5991] (first compound max 10 µM, 7x7, partner max 1 µM)	-0.0483	-0.0543	0.0101	-0.0851	0.041	-0.0341	-0.0368	-0.0407	-0.0462	0.0251	-0.0646	-0.0462	-0.0456	-0.0412	-0.0443	0.0008	0.0379	-0.0065	-0.0467	0.0078
N#Cc1cnc(Nc2cc(NC[C@H]3CNCCO3)c(C(F)(F)F)cn2)cn1 [SRA737] + C=CCn1c(=O)c2cnc(Nc3ccc(N4CCN(C)CC4)cc3)nc2n1-c1cccc(C(C)(C)O)n1 [AZD1775] (first compound max 10 µM, partner max 1 µM)	0.043	0.0422	0.0943	-0.0475	0.115	0.0289	-0.0475	0.0199	0.0225	0.106	0.0717	-0.0233	-0.0239	0.0488	0.0124	0.0512	0.098	0.0812	-0.0377	0.0116
N#Cc1cnc(Nc2cc(NC[C@H]3CNCCO3)c(C(F)(F)F)cn2)cn1 [SRA737] + CCc1c2c(nc3ccc(O)cc13)-c1cc3c(c(=O)n1C2)COC(=O)[C@]3(O)CC [SN-38] (first compound max 10 µM, 7x7, partner max 0.3 µM)	-0.0228	0.026	0.0294	-0.0136	0.154	0.0626	0.0226	-0.114	0.0737	0.0183	-0.0769	-0.0648	-0.0536	-0.0427	0.0914	0.13	0.0931	-0.0406	0.0052	-0.122
N#Cc1cnc(Nc2cc(NC[C@H]3CNCCO3)c(C(F)(F)F)cn2)cn1 [SRA737] + Nc1ccn([C@@H]2O[C@H](CO)[C@@H](O)C2(F)F)c(=O)n1 [Gemcitabine] (first compound max 10 µM, 7x7, partner max 0.3 µM)	0.0436	0.0092	0.0564	0.0485	0.141	0.0527	-0.0613	0.0372	0.14	0.0238	-0.0588	-0.0023	0.0514	0.138	0.118	0.141	0.0686	-0.0377	-0.022	-0.125
Cc1nc(-c2cn3c(n2)-c2ccc(-c4cnn(C(C)(C)C(N)=O)c4)cc2OCC3)n(C(C)C)n1 [Taselisib] + O=C(Nc1ccc2[nH]nc(-c3ccncc3)c2c1)[C@@H]1CCN(CC(=O)N2CCN(c3ccc(-c4ncccn4)cc3)CC2)C1 [SCH772984] (first compound max 10 µM, 7x7, partner max 5 µM)	0.0096	0.0219	0.029	0.0543	0.0371	0.0107	0.0587	-0.0116	0.103	0.0779	0.0699	0.0848	0.0293	0.1	0.0798	-0.0221	0.136	-0.0332	-0.0514	-0.002
CC1(C)CCC(CN2CCN(c3ccc(C(=O)NS(=O)(=O)c4ccc(NCC5CCOCC5)c([N+](=O)[O-])c4)c(Oc4cnc5[nH]ccc5c4)c3)CC2)=C(c2ccc(Cl)cc2)C1 [Venetoclax] + CS(=O)(=O)CCNCc1ccc(-c2ccc3ncnc(Nc4ccc(OCc5cccc(F)c5)c(Cl)c4)c3c2)o1 [Lapatinib] (first compound max 1 µM, 7x7, partner max 10 µM)	-0.0442	-0.0166	-0.0257	-0.0583	0.0165	-0.0477	-0.054	-0.0427	-0.0374	0.0306	-0.0328	-0.0535	-0.0332	-0.0112	-0.0482	0.0197	-0.0207	-0.0284	-0.0453	-0.0033
